According to patent publication US20090175788A1, “RADIOLABELLED LIGAND FOR THE GLYCINE 1 TRANSPORTER” (priority 2006, published 2009):

What was measured:
[1] = target: T1, glycine transporter subtype 1 (GlyT1) (Sus scrofa, UniProt A0A287AJD7); test: PET imaging with Compound A in pig brain; assay type: in vivo
T1 construct: from tissue; host or cells: brain of living anaesthetised pig (Yorkshire/Danish Landrace), in vivo PET
Description: (§1) The animals (pig, Yorkshire/Danish Landrace (˜40 Kg; n=2) were housed singly in thermostatically controlled (20° C.) and naturally illuminated stalls. They were scanned under terminal anaesthesia (ketamine induced isoflurane anaesthesia) on different days. The left femoral artery and vein of each animal were surgically cannulated using catheters (Avanti® size 4F-7F). Blood samples were collected from the femoral artery and the radiolabelled and non-labelled agents were injected into the femoral vein. Animals were placed supine in a Siemens ECAT EXACT HR tomograph, with the head immobilised in a custom-made holding device. During the study, blood pH, pCO2 and pO2 levels were monitored and maintained within the normal physiological range. In addition, BP and heart rate were recorded throughout the study. Compound A was administered intravenously into the femoral vein as a 1 minute bolus injection. PET scanning and arterial blood sampling was commenced upon start of the radioligand administration.
(§2) The PET data were analysed by using tracer kinetic modeling techniques to derive estimates of the tissue delivery (K1) and partition coefficient (PET volume of distribution—Vd). An input function representing the concentration of unchanged radiotracer in plasma was generated using discrete measures of the total plasma radioactivity and HPLC measures determining the parent radiotracer fraction. A generic tracer kinetic model (DEPICT) which estimates the tissues impulse response function was fitted to each of the individual tissue time activity curves to derive the appropriate parameters for each region (K1,Vd) (R. N. Gunn, S. R. Gunn, V. J. Cunningham. Cereb Blood Flow Metab. 2001, 21(6), 635-52; R. N. Gunn, S. R. Gunn, F. E. Turkheimer, J. A. Aston, V. J. Cunningham. J Cereb Blood Flow Metab. 2002, 22(12), 1425-39).

[2] = target: T1, glycine transporter subtype 1 (GlyT1); test: PET imaging with pharmacological challenges (blocking of Compound A uptake by a selective GlyT1 inhibitor); assay type: in vivo; details: pig
Description: as §1
In a first study, two sequential high specific activity iv radioligand Compound A administrations were performed in same animal on the same day.
as §2

T1 sequence (A0A287AJD7 1-654): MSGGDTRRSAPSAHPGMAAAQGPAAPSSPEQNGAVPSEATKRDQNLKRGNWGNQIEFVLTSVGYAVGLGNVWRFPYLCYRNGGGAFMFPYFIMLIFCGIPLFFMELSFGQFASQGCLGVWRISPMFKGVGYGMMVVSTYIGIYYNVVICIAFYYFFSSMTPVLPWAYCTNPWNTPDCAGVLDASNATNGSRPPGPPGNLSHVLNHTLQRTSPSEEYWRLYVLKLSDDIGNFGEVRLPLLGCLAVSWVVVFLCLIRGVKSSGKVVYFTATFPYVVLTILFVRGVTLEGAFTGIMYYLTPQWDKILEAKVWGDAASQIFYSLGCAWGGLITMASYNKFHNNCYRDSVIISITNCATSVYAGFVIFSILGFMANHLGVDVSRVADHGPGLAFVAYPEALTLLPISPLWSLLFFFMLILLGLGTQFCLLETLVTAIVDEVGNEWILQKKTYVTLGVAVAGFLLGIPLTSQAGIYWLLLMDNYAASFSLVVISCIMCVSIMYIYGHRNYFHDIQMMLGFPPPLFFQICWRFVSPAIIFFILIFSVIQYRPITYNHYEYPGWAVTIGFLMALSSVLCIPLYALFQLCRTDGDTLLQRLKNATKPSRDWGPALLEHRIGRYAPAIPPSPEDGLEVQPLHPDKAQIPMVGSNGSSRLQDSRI

SMILES	regional brain distribution ([1]; pig brain, PET, compared with the known distribution of GlyT1)	time of peak brain uptake of radioactivity after administration ([1]; pig brain, iv, PET) [min]	brain entry of radiotracer ([1]; pig, iv 1 minute bolus, PET 0 to 90 min)	Extraction fraction (K1) ([1]; pig, stable across brain regions, tracer kinetic model (DEPICT)) [min⁻¹]	effect on Compound A uptake in the brain ([2]; escalating iv doses 0.001, 0.01 and 0.1 mg/kg, 5 min prior to Compound A)	GlyT1 saturation (occupancy) ([2]; high dose 0.5 mg/kg iv)	effect on specific uptake of radiotracer Compound A ([2]; high iv dose 0.5 mg/kg, 5 minutes prior to Compound A)	ED50 ([2]; increasing iv doses, PET, read-out: intravenous ED50 (change in Compound A derived Vd)) [mg/kg]	effect of pretreatment on K1 of Compound A ([2]; iv pretreatment)
Cc1cccc(C)c1C(=O)NC(c1ccccc1)C1(N(C)[11CH3])CCCC1 (stereo not drawn) [Compound A, [^11C—N-methyl]-N-[[1-(dimethylamino)cyclopentyl](phenyl)methyl]-2,6-dimethylbenzamide]	higher accumulation in mid-brain, thalamus and cerebellum compared to cortical regions	25	readily enters the pig brain	0.06	–	–	–	–	–
CN1CCCC[C@H]1[C@@H](NC(=O)c1cccc(C(F)(F)F)c1Cl)c1ccccc1 [2-chloro-N—[(S)-[(2S)-1-methyl-2-piperidinyl](phenyl)methyl]-3-(trifluoromethyl)benzamide]	–	–	–	–	dose-dependent decrease of compound A uptake in the brain	near complete GlyT1 saturation	the specific uptake of radiotracer was blocked	0.0225	not altered
